Source: ChEMBL document CHEMBL4145459, “Synthesis of (3S,4S,5S)-trihydroxylpiperidine derivatives as enzyme stabilizers to improve therapeutic enzyme activity in Fabry patient cell lines” (Eur J Med Chem, 2018)
The source made the active and inactive calls. The calls are words filed in the database; no cut-off is given here.

Assays:
[1] = target: T1, Lysosomal alpha-mannosidase (Homo sapiens) (UniProt O00754); assay: Inhibition human recombinant acid alpha-mannosidase at 100 uM using p-nitrophenyl-glycopyranoside as substrate by spectrophotometric analysis
T1 sequence (whole entry): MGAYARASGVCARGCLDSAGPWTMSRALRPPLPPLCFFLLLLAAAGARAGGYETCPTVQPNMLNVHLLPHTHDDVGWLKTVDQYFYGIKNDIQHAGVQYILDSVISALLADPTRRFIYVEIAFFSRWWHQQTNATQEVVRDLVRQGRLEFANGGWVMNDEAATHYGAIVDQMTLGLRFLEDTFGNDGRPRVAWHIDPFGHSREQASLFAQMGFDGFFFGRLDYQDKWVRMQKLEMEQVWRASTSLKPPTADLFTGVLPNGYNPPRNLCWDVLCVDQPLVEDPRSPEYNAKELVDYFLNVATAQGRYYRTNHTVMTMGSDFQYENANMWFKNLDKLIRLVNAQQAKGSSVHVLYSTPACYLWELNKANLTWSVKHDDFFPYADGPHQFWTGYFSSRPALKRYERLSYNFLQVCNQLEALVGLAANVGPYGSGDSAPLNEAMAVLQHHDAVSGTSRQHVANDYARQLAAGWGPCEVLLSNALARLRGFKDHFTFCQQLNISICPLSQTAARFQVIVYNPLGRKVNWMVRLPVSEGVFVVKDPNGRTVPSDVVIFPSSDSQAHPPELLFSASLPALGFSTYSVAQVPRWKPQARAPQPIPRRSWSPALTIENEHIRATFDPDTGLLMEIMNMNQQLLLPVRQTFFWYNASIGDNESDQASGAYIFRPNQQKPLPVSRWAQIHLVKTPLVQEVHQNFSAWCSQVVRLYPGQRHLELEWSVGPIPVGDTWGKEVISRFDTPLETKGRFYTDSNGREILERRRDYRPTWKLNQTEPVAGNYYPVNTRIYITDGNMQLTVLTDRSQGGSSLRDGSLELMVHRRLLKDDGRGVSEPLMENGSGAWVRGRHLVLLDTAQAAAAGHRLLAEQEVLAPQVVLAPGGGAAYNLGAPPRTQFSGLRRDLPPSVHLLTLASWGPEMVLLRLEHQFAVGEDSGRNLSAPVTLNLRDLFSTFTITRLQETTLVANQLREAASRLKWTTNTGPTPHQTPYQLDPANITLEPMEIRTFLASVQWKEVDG

[2] = target: T2, Alpha-glucosidase (Geobacillus stearothermophilus) (UniProt P94451); assay: Inhibition of Bacillus stearothermophilus alpha-glucosidase at 100 uM using 4-MU-glycopyranoside as substrate by spectrophotometric analysis
T2 sequence (whole entry): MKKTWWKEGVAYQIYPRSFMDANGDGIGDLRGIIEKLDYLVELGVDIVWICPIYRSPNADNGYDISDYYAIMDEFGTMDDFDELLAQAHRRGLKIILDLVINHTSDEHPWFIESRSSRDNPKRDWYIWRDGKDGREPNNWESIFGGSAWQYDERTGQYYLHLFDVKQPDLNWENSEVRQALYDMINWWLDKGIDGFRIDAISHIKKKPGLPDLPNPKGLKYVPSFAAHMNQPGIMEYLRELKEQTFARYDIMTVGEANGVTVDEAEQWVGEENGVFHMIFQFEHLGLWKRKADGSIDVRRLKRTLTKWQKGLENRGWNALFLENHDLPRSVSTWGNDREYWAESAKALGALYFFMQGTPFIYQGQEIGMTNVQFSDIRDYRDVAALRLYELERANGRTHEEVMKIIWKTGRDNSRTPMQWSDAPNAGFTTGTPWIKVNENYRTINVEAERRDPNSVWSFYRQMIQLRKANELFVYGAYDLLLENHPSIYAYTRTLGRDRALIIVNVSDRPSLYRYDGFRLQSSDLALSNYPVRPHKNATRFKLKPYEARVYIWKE

[3] = target: T3, Beta-galactosidase (Homo sapiens) (UniProt P16278); assay: Inhibition of human lymphocyte beta-galactosidase at 100 uM using 4-MU-glycopyranoside as substrate by spectrophotometric analysis
T3 sequence (whole entry): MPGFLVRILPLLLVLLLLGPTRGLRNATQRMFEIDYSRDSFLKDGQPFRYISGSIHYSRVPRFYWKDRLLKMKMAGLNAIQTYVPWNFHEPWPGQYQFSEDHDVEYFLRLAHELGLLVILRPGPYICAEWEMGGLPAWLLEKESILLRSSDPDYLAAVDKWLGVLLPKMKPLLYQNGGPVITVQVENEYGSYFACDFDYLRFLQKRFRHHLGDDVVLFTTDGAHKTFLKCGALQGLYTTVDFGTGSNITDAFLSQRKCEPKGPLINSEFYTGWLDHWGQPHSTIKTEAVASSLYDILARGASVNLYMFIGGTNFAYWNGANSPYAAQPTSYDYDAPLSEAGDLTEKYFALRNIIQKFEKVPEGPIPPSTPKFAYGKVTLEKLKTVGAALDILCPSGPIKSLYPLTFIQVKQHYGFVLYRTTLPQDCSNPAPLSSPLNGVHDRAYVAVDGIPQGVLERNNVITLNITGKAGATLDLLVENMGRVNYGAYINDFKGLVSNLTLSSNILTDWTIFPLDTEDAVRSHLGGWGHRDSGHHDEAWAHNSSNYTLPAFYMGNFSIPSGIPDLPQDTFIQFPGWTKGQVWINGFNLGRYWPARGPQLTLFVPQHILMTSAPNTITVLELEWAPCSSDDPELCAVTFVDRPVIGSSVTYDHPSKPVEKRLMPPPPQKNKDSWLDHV

[4] = target: T4, Lysosomal acid glucosylceramidase (Homo sapiens) (UniProt P04062); assay: Inhibition of human recombinant acid beta-glucosidase at 100 uM using 4-MU-glycopyranoside as substrate by spectrophotometric analysis
T4 sequence (whole entry): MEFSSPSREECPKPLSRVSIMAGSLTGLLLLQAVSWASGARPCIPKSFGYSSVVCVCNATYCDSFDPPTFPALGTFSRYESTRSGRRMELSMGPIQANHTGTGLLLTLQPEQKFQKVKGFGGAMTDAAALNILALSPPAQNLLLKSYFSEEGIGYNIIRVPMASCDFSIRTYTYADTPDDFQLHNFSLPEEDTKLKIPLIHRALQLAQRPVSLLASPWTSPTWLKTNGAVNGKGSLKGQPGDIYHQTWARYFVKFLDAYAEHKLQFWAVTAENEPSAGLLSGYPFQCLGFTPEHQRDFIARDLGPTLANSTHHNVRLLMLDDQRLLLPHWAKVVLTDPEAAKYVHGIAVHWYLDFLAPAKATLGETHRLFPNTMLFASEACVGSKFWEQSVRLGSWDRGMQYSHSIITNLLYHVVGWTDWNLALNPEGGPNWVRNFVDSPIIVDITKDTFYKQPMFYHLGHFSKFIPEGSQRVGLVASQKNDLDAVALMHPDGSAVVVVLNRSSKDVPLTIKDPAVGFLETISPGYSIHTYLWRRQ

[5] = target: Lysosomal alpha-glucosidase (Homo sapiens) (UniProt P10253); assay: Inhibition of human recombinant acid alpha-glucosidase at 100 uM using 4-MU-glycopyranoside as substrate by spectrophotometric analysis
[6] = target: T5, Alpha-galactosidase A (Homo sapiens) (UniProt P06280); assay: Inhibition of human recombinant alpha-galactosidase A at 100 uM using 4-MU-alpha-d-galactopyranoside as substrate by fluorescence assay relative to control
T5 sequence (whole entry): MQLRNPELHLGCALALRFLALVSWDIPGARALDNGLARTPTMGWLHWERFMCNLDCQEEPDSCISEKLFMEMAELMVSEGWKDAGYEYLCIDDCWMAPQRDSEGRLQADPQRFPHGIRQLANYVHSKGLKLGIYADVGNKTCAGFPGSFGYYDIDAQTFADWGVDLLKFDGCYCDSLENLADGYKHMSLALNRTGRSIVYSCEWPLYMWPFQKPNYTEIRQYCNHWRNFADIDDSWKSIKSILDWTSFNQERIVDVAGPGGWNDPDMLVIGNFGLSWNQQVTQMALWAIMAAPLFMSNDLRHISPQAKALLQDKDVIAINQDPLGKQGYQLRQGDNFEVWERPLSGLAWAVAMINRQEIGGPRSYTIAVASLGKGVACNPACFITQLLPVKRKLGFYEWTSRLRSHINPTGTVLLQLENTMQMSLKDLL

Lymphocyte = assay: Cytotoxicity against human lymphocytes at 100 uM after 48 to 72 hrs by AlamarBlue assay; assay type: cell-based
[7] = target: Alpha-galactosidase (Coffea arabica) (UniProt Q42656); assay: Inhibition of green coffee beans alpha-galactosidase at 100 uM using 4-MU-glycopyranoside as substrate by spectrophotometric analysis relative to control
Sequence of Alpha-galactosidase (Coffea arabica) (Q42656 16-378 limits assumed): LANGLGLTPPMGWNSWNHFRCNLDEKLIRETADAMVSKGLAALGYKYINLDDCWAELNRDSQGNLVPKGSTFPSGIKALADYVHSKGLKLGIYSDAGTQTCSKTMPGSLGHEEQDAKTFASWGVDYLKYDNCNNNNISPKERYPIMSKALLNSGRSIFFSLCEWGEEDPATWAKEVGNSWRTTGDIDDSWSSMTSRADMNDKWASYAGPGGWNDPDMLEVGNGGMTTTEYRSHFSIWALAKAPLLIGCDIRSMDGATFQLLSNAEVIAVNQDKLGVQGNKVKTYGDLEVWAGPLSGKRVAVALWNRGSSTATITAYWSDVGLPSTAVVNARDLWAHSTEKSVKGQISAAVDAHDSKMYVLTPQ

- inhibition [1]: inactive
- inhibition [2]: inactive
- inhibition [3]: inactive
- inhibition [4]: inactive
- inhibition [5]: inactive
- inhibition [6]: 99%
- inhibition [7]: 57%
SMILES: COc1ccc(OC)c(/C=C/C(=O)NC[C@H]2NC[C@H](O)[C@@H](O)[C@H]2O)c1
- Activity (Lymphocyte): Non-Toxic
